Where “and” joins values, the source holds several entries; their conditions need not be identical. Equal values may be shown once.
Experiments:
[1] = molecular target: T1, P-gp (Homo sapiens, UniProt P08183); test: Rh123 accumulation in Caco-2 cells; assay type: cell-based; conditions: for Percentage of rhodamine 123 accumulation relative to vehicle treatment: positive = increase; for More Rh123 accumulation than verapamil alone: verapamil 200 μmol/L plus CLA 5 μmol/L
T1 construct: three cells expressing P-gp, Caco-2, KBv and rat brain microvessel endothelial cells (RBMEC); endogenous in cells; host or cells: Caco-2
T1 sequence (P08183 whole entry): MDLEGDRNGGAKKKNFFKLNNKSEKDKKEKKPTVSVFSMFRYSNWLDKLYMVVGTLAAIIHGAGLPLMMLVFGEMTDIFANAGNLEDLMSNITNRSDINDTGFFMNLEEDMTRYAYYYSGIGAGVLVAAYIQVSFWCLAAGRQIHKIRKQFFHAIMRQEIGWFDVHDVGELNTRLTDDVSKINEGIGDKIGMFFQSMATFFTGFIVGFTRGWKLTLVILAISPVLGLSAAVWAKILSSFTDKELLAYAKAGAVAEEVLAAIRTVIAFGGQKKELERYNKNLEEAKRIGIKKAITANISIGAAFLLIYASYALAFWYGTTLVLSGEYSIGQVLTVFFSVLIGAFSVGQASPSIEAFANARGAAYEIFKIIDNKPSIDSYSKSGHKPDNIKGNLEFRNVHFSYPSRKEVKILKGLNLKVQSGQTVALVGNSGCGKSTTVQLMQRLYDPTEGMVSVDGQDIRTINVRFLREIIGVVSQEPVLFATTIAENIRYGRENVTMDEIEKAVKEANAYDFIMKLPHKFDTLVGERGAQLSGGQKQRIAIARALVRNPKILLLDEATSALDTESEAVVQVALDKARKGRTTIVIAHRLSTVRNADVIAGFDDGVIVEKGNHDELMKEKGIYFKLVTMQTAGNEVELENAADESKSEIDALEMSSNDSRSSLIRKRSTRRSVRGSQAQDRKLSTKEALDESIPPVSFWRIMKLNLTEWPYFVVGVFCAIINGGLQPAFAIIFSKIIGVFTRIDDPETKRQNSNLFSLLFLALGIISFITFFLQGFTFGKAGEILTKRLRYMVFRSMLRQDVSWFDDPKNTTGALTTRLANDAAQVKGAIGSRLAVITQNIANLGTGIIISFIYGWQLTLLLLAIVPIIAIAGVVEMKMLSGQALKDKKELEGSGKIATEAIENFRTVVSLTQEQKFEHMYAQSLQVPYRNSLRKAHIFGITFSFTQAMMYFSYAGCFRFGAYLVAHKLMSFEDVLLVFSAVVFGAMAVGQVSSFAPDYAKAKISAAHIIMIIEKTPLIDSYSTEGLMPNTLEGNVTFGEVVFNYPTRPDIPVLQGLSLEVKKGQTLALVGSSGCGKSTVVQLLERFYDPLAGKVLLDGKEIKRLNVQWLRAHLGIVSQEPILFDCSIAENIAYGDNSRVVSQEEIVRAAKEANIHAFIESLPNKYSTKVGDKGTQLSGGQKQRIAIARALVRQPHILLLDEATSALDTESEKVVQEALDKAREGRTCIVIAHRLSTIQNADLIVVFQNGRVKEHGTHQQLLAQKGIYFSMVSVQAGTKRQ
Experimental: (§1) Caco-2 cells were seeded onto 6-well plates at a density of 5 × 10^5 cells/well and maintained in MEM supplemented with 10% (v/v) FBS, 1% (v/v) NEAA, 100 units/mL penicillin and 100 μg/mL streptomycin sulphate in a humidified 37°C incubator with 5% CO2. Upon 80%–90% confluence, the cells were provided new complete medium (2 mL/well) and exposed, to vehicle, (−)CLA (1 or 5 μmol/L), (+)CLA (1 or 5 μmol/L), verapamil (200 μmol/L) or individual enantiomer (1 or 5 μmol/L) plus verapamil (200 μmol/L). Then, Rh123 (5 μmol/L) was added to all the wells. After incubation at 37°C and 5% CO2 for 2 h which was designed by the pharmacokinetic parameters of CLA enantiomers, the cells were washed 3 times with 2 mL of ice-cold PBS (pH 7.4), lysed in 400 μL of lysis buffer [50 mmol/L Tris-HCl (pH 8.0), 150 mmol/L NaCl, 0.1% SDS, 100 μg/mL PMSF, 1 μg/mL aprotinin and 1% Nonidet P-40], and then were placed on ice for 40 min. The plates were wrapped in tinfoil. The fluorescence of Rh123 in each well was detected by Spectra Max Gemini XS plate reader (Molecular Devices Corp., Sunnyvale, CA, USA) with excitation and emission wavelengths of 488 nm and 530 nm, respectively. Meanwhile, 10 μL of cell lysates were collected from each well to measure protein concentration using Lowry’s method. Intracellular Rh123 accumulation was normalized by protein concentration (mg/mL) and then was calculated by a standard curve of Rh123 at three concentrations (2.5–10 μmol/L), in parallel with the lysis experiment.

[2] = molecular target: T1, P-gp; test: Rh123 accumulation in KBv cells; assay type: cell-based; conditions: for Percentage of rhodamine 123 accumulation relative to vehicle treatment: positive = increase; for Effect on P-gp efflux activity when combined with verapamil (in words): higher concentration CLA 10 μmol/L plus verapamil 200 μmol/L
Experimental: KB or its vinblastine-resistance derivative KBv cells[19] were maintained on 6-well plates (5 × 10^5 cells/well) in […] medium with 10% FBS, 100 units/mL penicillin and 100 μg/mL streptomycin sulphate at 37°C with 95% air and 5% CO2. After reaching 80%–90% confluence, the two cells were treated with the following agents, respectively: vehicle; (−)CLA (5 or 10 μmol/L); (+)CLA (5 or 10 μmol/L). Additionally, the KBv cells were treated with verapamil (200 μmol/L); or individual enantiomer (5 or 10 μmol/L) plus verapamil (200 μmol/L). Rh123 (5 μmol/L) were finally added to these wells. Subsequently, cell incubation, solubilisation and Rh123 accumulation were performed by using the same method for Caco-2 cells.

[3] = test system: P-gp; test: P-gp expression in KB cells: Western blots; assay type: cell-based, Human; conditions: 5 μmol/L, 24 h, normalized to GAPDH
Experimental: The sensitive, non-induced KB cells on 6-well plates were grown to 80%–90% confluence and incubated with the following agents for 24 h at 37°C and 5% CO2: vehicle, (−)CLA (1 or 5 μmol/L), (+)CLA (1 or 5 μmol/L), or verapamil (100 μmol/L). The cells were washed 3 times with ice-cold PBS (pH 7.4) and were lysed with 80 μL of lysis buffer described above. Lysates were frozen with liquid nitrogen, thawed in water at 37°C three times and centrifuged at 15,000 ×g for 10 min. The protein concentration of the supernatant was determined by Lowry’s method with bovine serum albumin as the standard. Proteins (48 μg) were separated by SDS-PAGE on a 10% separating gel and 4% stacking gel, and were transferred onto Immobilon-P membranes. The transferred proteins were treated with a blocking buffer (5% non-fat dried milk and 0.02% NP-40 in PBS) and then incubated with P-gp or GAPDH antibodies (at a 1:100 dilution) or HRP-conjugated secondary antibodies (1:1000 dilution) at 37°C for 1 h, respectively. The protein bands were visualized with enhanced chemiluminescence according to the manufacturer’s instructions. The density of the bands was quantified by scanning densitometry (LAS-3000 Imaging System, Fujifilm, Japan; and Kodak Digital Science 1D Analysis Software, Rochester, NY, USA) and was expressed as normalized values to GAPDH.

[4] = test system: P-gp; test: Rh123 accumulation summarized over Caco-2, KBv and RBMECs; assay type: cell-based; conditions: mean of Caco-2, RBMEC, KBv
Experimental: as §1
The experimental programs in this part were approved by the Animal Care and Welfare Committee in our institute. Animals were treated in accordance with national/international guidelines. Primary cultures of brain microvessel endothelial cells were prepared from Sprague—Dawley rats (10–12 days old; Beijing Vital River Company, Beijing, China), as previously described by Qian et al.[21]. The gray matter of animals was taken out and minced into small pieces of approximately 1 mm^3 in ice-cold MEM medium, then dissociated by using 2 mg/mL collagenase containing DNase at a final concentration of 10.5 μg/ml on a shaker for 20 min at 37°C. The cells were pelleted by centrifugation(1000 rpm, 10 min, 4°C) and digested once again according to the above protocol. Then 20% dextran(Mr 40,000) was added to the cells for differential centrifugation at 2000 rpm for 10 min. The cells were re-suspended in complete MEM medium and passed through 74-μm stainless steel mesh. […] The P-gp expression in cultured cells was determined by Western blot analyses using a mouse monoclonal antibody raised against amino acids 1040–1280 of P-gp. […]

[5] = parameters: method as in PMID 23684935; conditions: rabbits; oral dose of 100 mg/kg; cited from earlier work
[6] = high dose, CLA 5 μmol/L, Rh123 5 μmol/L, 2 h
[7] = low dose, CLA 1 μmol/L, Rh123 5 μmol/L, 2 h
[8] = high dose, CLA 10 μmol/L, Rh123 5 μmol/L
[9] = low dose, CLA 5 μmol/L, Rh123 5 μmol/L

SMILES	Decrease of Rh123 intracellular accumulation relative to vehicle control ([1]; CLA 1 μmol/L, Rh123 5 μmol/L, 2 h) [%]	Reduction of Rh123 intracellular concentration relative to verapamil treatment alone ([1]; co-treatment CLA 1 μmol/L with verapamil 200 μmol/L) [%]	Percentage of rhodamine 123 accumulation relative to vehicle treatment [1, 6]	Percentage of rhodamine 123 accumulation relative to vehicle treatment [1, 7]	More Rh123 accumulation than verapamil alone [1] [%]	Percentage of rhodamine 123 accumulation relative to vehicle treatment [2, 8]	Effect on P-gp efflux activity when combined with verapamil (in words) [2]	Antagonism of the inhibition of verapamil to P-gp relative to verapamil treatment alone ([2]; low concentration CLA 5 μmol/L plus verapamil 200 μmol/L) [%]	Percentage of rhodamine 123 accumulation relative to vehicle treatment [2, 9]	Decrease of Rh123 intracellular accumulation vs. control ([2]; lower concentration, CLA 5 μmol/L, Rh123 5 μmol/L) [%]	P-gp expression upregulated relative to vehicle control [3] [%]	Percentage of rhodamine 123 accumulation relative to vehicle treatment, Mean±SD, n = 3 ([4]; high dose) [%]	Percentage of rhodamine 123 accumulation relative to vehicle treatment, Mean±SD, n = 3 ([4]; low dose) [%]	AUC0–8 h in the portal vein [5] [µg·h/mL]	P-gp expression downregulated relative to vehicle control [3] [%]
CN1C(=O)[C@H](O)[C@@H](c2ccccc2)[C@H]1[C@H](O)c1ccccc1 [(+)CLA, 3R,4S,5S,6R-CLA]	11.7	29.3	58.2% and 58.22%	-11.68%	23.1	24.5% and 24.49%	synergistic effect	35.5	-25.92%	25.9	54.5	41.28±16.86	-19.21±7.16	2453 ± 1101	–
CN1C(=O)[C@@H](O)[C@H](c2ccccc2)[C@@H]1[C@@H](O)c1ccccc1 [(−)CLA, 3S, 4R, 5R, 6S-clausenamide]	–	–	63.0% and 62.97%	28.5% and 28.51%	24.2	30.0%	synergistic effect	–	8.2% and 8.16%	–	–	50.48±17.88	18.90±10.22	1001 ± 487	15.9
